One data set deals with tubulin. Nature of the data set: antitubulin activities. In kind it is cell-based. The following applies: for IC50: read-out: IC50 (antitubulin agent). From the text: Compounds 1, 2 are cyclopenta pyrimidine compounds. Their antitubulin activities are set forth above. […] The structural differences between Compounds 1 and 2 lead to several pharmacological ramifications. Among them, the conformation of aniline rings maybe a pivotal factor that results in the affinity difference. In order to validate this, we set forth a preferred representative series of N-methyl-N-methoxynaphthyl cyclopenta[d]pyrimidin-4-amine (4) based on the high potent antibulin agent 3 (IC50=7.0 nM). All these preferred representative methoxynaphthyl substituted bicyclic compounds of this invention have the same function groups and molecular weight, similar Log D.

Data set [1] has as its system MDA-MB-435 tumor cell line. Nature of the data set: inhibition of proliferation, sulforhodamine B assay. In kind it is cell-based. The following applies: read-out: IC50 ± SD (MDA-MB-435) Tumor cells. The protocol: (§1) However, the reverse orientation of methoxy and methylamino on the naphthyl, compound 11, has no microtubule depolymerization inhibitory activity up to 10 000 nM.
On the technique in general: Sulforhodamine B stains cellular protein and so reports cell mass.

The next data set concerns purified tubulin. Kind of data set: inhibition of tubulin assembly. In kind it is biochemical. The note with it: read-out: Inhibition of tubulin assembly IC50 ± SD. The protocol: The effects of designed compounds 10-14 on the polymerization of purified tubulin were evaluated. This allows for the study of the direct interaction of the compounds with their intracellular target. The ability of these compounds to bind to the colchicine site on tubulin was evaluated by measuring inhibition of [^3H]colchicine binding to tubulin. […] It is therefore likely that 13 binds in the colchicine site.

In a further data set the test system is Wild type HeLa. Nature of the data set: antiproliferative activity, isogenic HeLa pair, wild type. The following applies: read-out: IC50 ± SD Wild type HeLa. It is filed as cell-based. An excerpt:
(§2) One mechanism of drug resistance that can lead to chemotherapy failure with tubulin targeting agents is the expression of the βIII isotype of tubulin.

The subject of data set [2] is colchicine site on tubulin. Kind of data set: inhibition of [3H]colchicine binding to tubulin. The note with it: 1 μM inhibitor. As for the experimental part:
This allows for the study of the direct interaction of the compounds with their intracellular target. The ability of these compounds to bind to the colchicine site on tubulin was evaluated by measuring inhibition of [^3H]colchicine binding to tubulin.

In a further data set the test system is A-10 cells. Nature of the data set: cell-based phenotypic screen of microtubule disrupting effects. More on the design: species or system rat. The following applies: read-out: EC50 in A-10 cells (Tubulin depolymerization inhibitory acitivity). As for the experimental part: as §1
Data set [3] deals with β-III Overexpressing HeLa. Kind of data set: antiproliferative activity, isogenic HeLa pair, βIII tubulin. The following applies: for Rr: HeLa cell line pair, wild type and βIII tubulin; for IC50: read-out: IC50 ± SD β-III Overexpressing HeLa. In kind it is cell-based.
Text: as §2

For data set [4], the system named is MDA MB 435, SKOV3, SKOV3M6/6. Kind of data set: cytotoxicity towards panel of human cell lines. The protocol: (§3) Antimitotic compounds AAG1, AAG7, AAG12, AAG16, AAG20, and AAG26, Taxol®, and combrestastatinA4, were evaluated for cytotoxity towards the panel of human cell lines MDA MB 435 (human breast cancer), SKOV3 (human ovarian cancer), and SKOV3M6/6 (Pgp infected human ovarian cancer). […] The IC50 is the inhibitory concentration required to effectuate fifty percent inhibition of cell growth.

Data set [5] deals with SKOV3M6/6 (Pgp infected human ovarian cancer). Nature of the data set: cytotoxicity towards Pgp infected ovarian cancer cell line. The following applies: for IC50: Homo sapiens; for calculated relative resistance value: SKOV3M6/6 versus SKOV3, FIG. 4. The protocol:
as §3

The subject of data set [6] is MDA MB 435 human breast cancer. Kind of data set: flow cytometric analysis of cell cycle phase distribution. It is filed as cell-based. The following applies: treatment for twenty four hours. For orientation: A flow cytometer gives signals particle by particle.
In data set [7] the test system is A-10 rat smooth muscle cell line. Nature of the data set: microtubule depolymerization immunofluorescence assay. In kind it is cell-based. The following applies: 24 h; 250 nM AAG1, 500 nM AAG7, 40 nM AAG16. As for the experimental part: A-10 rat smooth muscle cells were used since they grow as flat monolayers that are amenable to imaging. The A-10 cells were treated for twenty four (24) hours (h) with EtOH (control), 250 nM (nanomolar) AAG1, 500 nM AAG7, or 40 nM AAG16, respectively. Microtubules were then visualized by indirect immunofluorescence staining with beta-tubulin antibodies. […] Each of the compounds AAG1, AAG7, and AAG16 has potent nanomolar tubulin inhibitory activity. Compounds of the present invention having the structural Formulas III and IV, as set forth herein, inhibit the microtubule dynamics. The inhibition of microtubule dynamics hinders microtubule formation and results in mitotic arrest and initiation of apoptosis or programmed cell death.

For another data set, the system named is NCI 55 human tumor lines. Nature of the data set: NCI 55 human tumor lines in vitro screen. It is filed as cell-based. The note with it: all 55 tumor cell lines. From the text: FIGS. 5a and 5b show the results of testing compound AAG1 of the present invention using National cancer Institute (NCl) 55 human tumor lines. The cells lines, which represent leukemia, non-small cell lung cancer, colon cancer, central nervous system cancer, melanoma, ovarian cancer, renal cancer, prostate cancer, and breast cancer, are listed in FIG. 5. Testing was in accordance with the NCI Developmental Therapeutics Program (DTP) In Vitro Cell Line Screening Project (IVCLSP). Methodology for testing under IVCLSP is provided at http://dtp.nci.gov/branches/btb/ivclsp.html.
GI50 is the concentration of chemical required to reduce the growth of treated cells to half that of untreated cells (i.e. control). GI50 represents the concentration of chemical required to effectuate fifty percent inhibition of cell growth.

[8] abbreviates: Homo sapiens, MDA-MB-435, MDA-MB-435.

The values that follow come from patent publication US20140303188A1, “Substituted Cyclopenta Pyrimidine Bicyclic Compounds Having Antitmitotic And/Or Antitumor Activity And Methods Of Use Thereof” (DUQUESNE UNIVERSITY OF THE HOLY SPIRIT, priority 2008, published 2014).

Structures can show the parent of a compound that is named as a salt. Where two headings read alike, the source gives them in different places.

Broadly, the melting point is the temperature of the solid-liquid transition. As a reminder, the IC50 is the concentration at which inhibition is half-maximal. One may read the EC50 as the concentration at which the effect is half-maximal.

As for `COc1ccc(N(C)c2nc(C)nc3c2CC(C)C3)cc1` (centres unmarked) (as salt: chloride) [AAG26, N-(4-Methoxyphenyl)-N,2,6-trimethyl-6,7-dihydro-5H-cyclopenta[d]pyrimidin-4-aminium chloride], the melting point is 196 to 198 °C.

Turning to `COc1ccc(N(C)c2nc(C)nc3c2CCC3)cc1` [Compound 3], the IC50 worked out at 7 nM with tubulin and 7 ± 0.7 nM in data set [1] (setting [8]).

For the compound `COc1ccc(/C=C\c2cc(OC)c(OC)c(OC)c2)cc1O` [CA4, combretastatin A-4, reference compound], the IC50 came out at […] with purified tubulin, 1.8 ± 0.4 nM in the data set on Wild type HeLa, 3.4 ± 0.6 nM in [1] (MDA-MB-435) and 2.5 ± 0.7 nM in data set [3]. For the same compound, the “Inhibition of colchicine binding % Inhibition ± SD” value in [2] is reported as 90 ± 0.2%. Also, the EC50 with A-10 cells (A-10 cells) is 13 nM. Also, the Rr in data set [3] was 0.72.

For the compound `COc1cccc2cc(N(C)c3ncnc4c3CCC4)ccc12` [Compound 12], the IC50 in the data set with Wild type HeLa (Homo sapiens, HeLa) was found to be 15 nM; in data set [1] (setting [8]), 33.7 ± 3.4 nM; in [3] (Homo sapiens, HeLa), 14 ± 1 nM. In [3], this compound displayed a Rr of 1.07.

For the compound `COc1ccc(N(C)c2nc(C)nc3c2CC(C)C3)cc1` (centres unmarked) [AAG26, N-(4-Methoxyphenyl)-N,2,6-trimethyl-6,7-dihydro-5H-cyclopenta[d]pyrimidin-4-aminium chloride], the “cytotoxic activity toward each of the human cancer cell lines tested” value (“cytotoxic activity toward each” for short) in data set [4] (MDA MB 435, SKOV3, SKOV3M6/6) is on record as “have cytotoxic activity”. 3.2 nM corresponded to half-maximal inhibition in [5] (IC50).

Regarding `COc1ccc(Nc2nc(C)nc3c2CC(C)C3)cc1` (centres unmarked) [Compound 1], in the data set on tubulin, the “antitubulin activity in words” value was “almost inactive”.

For the compound `COc1ccc(N(C)c2nc(C)nc3[nH]ccc23)cc1` [AAG20, N-(4-methoxyphenyl)-N,2-dimethyl-7H-pyrrolo[2,3-d]pyrimidin-4-amine], the “percentage of cells in the G2/M phases” value in [6] was “increased approximately two-fold”. The “cytotoxic activity toward each” value in [4] (MDA MB 435, SKOV3, SKOV3M6/6) was “have cytotoxic activity”.

With `CC(=O)O[C@H]1C(=O)[C@@]2(C)[C@H]([C@H](OC(=O)c3ccccc3)[C@]3(O)C[C@H](OC(=O)[C@H](O)[C@@H](NC(=O)c4ccccc4)c4ccccc4)C(C)=C1C3(C)C)[C@]1(OC(C)=O)CO[C@@H]1C[C@@H]2O` [Paclitaxel, paclitaxel, reference compound], the IC50 with Wild type HeLa (Homo sapiens, HeLa) stood at 5.3 ± 2 nM; in [5], 4400 nM; in data set [3] (Homo sapiens, HeLa), 16 ± 1 nM. In addition, in data set [5], the “calculated relative resistance value” was 2013. The compound further returned a Rr in [3] of 0.33.

As to `COc1cccc2cc(N(C)c3nc(C)nc4c3CCC4)ccc12` [Compound 13, N,2-dimethyl-N-(5′-methoxynaphthyl-2′-amino)-cyclopenta[d]pyrimidin-4-amine], the IC50 turned out to be 4 ± 1 nM with Wild type HeLa (Homo sapiens, HeLa); 10 nM in data set [1] (setting [8]); 10.2 ± 0.46 nM in data set [1] (MDA-MB-435); 4 ± 1 nM in [3] (Homo sapiens, HeLa). In [3], this compound had a Rr of 1.0.

Take `COc1ccc(N(C)c2nc(C)nc3c2CC(C)C3)cc1` (centres unmarked) [Compound 2]: the IC50 with tubulin came out at 25.7 nM.

Consider `COc1ccc(N(C)c2nc(N)nc3c2CC(C)C3)cc1` (centres unmarked) [AAG7, N^4-(4-Methoxyphenyl)-N^4,6-dimethyl-6,7-dihydro-5H-cyclopenta[d]pyrimidine-2,4-diamine], for which the “cytotoxic activity toward each” value in data set [4] (MDA MB 435, SKOV3, SKOV3M6/6) is “have cytotoxic activity”. Further, in data set [7], the “effect on microtubules (immunofluorescence, beta-tubulin antibodies)” value (from here on “effect on microtubules”) is on record as “caused losses of microtubules”.

Take `COc1ccc(N(C)c2nc(C)nc3c2CCC3)c2ccccc12` [Compound 14]: the IC50 with Wild type HeLa (Homo sapiens, HeLa) stood at 85 ± 5 nM; in [1] (setting [8]), 234 ± 20 nM; in [3] (Homo sapiens, HeLa), 180 ± 40 nM. The EC50 in the data set on A-10 cells (Rattus norvegicus, A10) amounted to 500 ± 2.1 nM. The Rr in data set [3] is recorded as 0.47.

With `COc1ccc(N(C)c2nc(C)nc3oc(C)cc23)cc1` [AAG1, N-(4-methoxyphenyl)-N,2,6-trimethylfuro[2,3-d]pyrimidin-4-amine], in [6], the “percentage of cells in the G2/M phases” value is “increased approximately two-fold”. Further, the “cytotoxic activity toward each” value in data set [4] (MDA MB 435, SKOV3, SKOV3M6/6) was “have cytotoxic activity”. Moreover, the “effect on microtubules” value in [7] is “caused losses of microtubules”. For the same compound, in data set [5], the IC50 was 171 nM and the “calculated relative resistance value” is recorded as 4.7. Also, the GI50 entry in the data set with NCI 55 human tumor lines is reported as “single digit 10^−8 molar levels”.

With “N-(4-methoxy-phenyl)-6-methyl-5H-pyrrolo[3,2-d]pyrimidine-2,4-diamine [AAG12]”, the “percentage of cells in the G2/M phases” value in data set [6] is “increased approximately two-fold”. For the same compound, the “cytotoxic activity toward each” value in data set [4] is on record as “have cytotoxic activity”.

Consider `COc1ccc2c(N(C)c3ncnc4c3CCC4)cccc2c1` [Compound 10], for which the EC50 in the data set on A-10 cells (Rattus norvegicus, A10) is above 10000 nM.

Consider `COc1ccc(N(C)c2ncnc3occ(C)c23)cc1` [AAG16, N-(4-methoxyphenyl)-N,5-dimethylfuro[2,3-d]pyrimidin-4-amine], for which, in data set [6], the “percentage of cells in the G2/M phases” value is on record as “increased approximately two-fold”. Moreover, the “cytotoxic activity toward each” value in [4] (MDA MB 435, SKOV3, SKOV3M6/6) is listed as “have cytotoxic activity”. Further, in data set [7], the “effect on microtubules” value is recorded as “caused losses of microtubules”. The IC50 in data set [5] was found to be 8.4 nM.

Regarding `COc1ccc2c(N(C)c3nc(C)nc4c3CCC4)cccc2c1` [Compound 11, N,2-dimethyl-N-(6′-methoxynaphthyl-1′-amino)-cyclopenta[d]pyrimidin-4-amine], the IC50 in the data set on Wild type HeLa (Homo sapiens, HeLa) is above 10000 nM; in data set [3] (Homo sapiens, HeLa) it was above 10000 nM. Also, in the data set on A-10 cells (Rattus norvegicus, A10), the EC50 is above 10000 nM.

Regarding `CC(=O)O[C@@]12CO[C@@H]1C[C@H](O)[C@@]1(C)C(=O)[C@H](O)C3=C(C)[C@@H](OC(=O)[C@H](O)[C@@H](NC(=O)OC(C)(C)C)c4ccccc4)C[C@@](O)([C@@H](OC(=O)c4ccccc4)[C@H]21)C3(C)C` [Docetaxel, docetaxel, reference compound], the IC50 with Wild type HeLa (Homo sapiens, HeLa) turned out to be 4 ± 2 nM; in data set [3] (Homo sapiens, HeLa) it was 13 ± 4 nM. In data set [3], this compound yielded a Rr of 0.31.
